The target of the assay is T1, T1R umami taste receptor (Homo sapiens, UniProt Q7RTX0+Q7RTX1).
T1 sequence (Q7RTX1 21-841): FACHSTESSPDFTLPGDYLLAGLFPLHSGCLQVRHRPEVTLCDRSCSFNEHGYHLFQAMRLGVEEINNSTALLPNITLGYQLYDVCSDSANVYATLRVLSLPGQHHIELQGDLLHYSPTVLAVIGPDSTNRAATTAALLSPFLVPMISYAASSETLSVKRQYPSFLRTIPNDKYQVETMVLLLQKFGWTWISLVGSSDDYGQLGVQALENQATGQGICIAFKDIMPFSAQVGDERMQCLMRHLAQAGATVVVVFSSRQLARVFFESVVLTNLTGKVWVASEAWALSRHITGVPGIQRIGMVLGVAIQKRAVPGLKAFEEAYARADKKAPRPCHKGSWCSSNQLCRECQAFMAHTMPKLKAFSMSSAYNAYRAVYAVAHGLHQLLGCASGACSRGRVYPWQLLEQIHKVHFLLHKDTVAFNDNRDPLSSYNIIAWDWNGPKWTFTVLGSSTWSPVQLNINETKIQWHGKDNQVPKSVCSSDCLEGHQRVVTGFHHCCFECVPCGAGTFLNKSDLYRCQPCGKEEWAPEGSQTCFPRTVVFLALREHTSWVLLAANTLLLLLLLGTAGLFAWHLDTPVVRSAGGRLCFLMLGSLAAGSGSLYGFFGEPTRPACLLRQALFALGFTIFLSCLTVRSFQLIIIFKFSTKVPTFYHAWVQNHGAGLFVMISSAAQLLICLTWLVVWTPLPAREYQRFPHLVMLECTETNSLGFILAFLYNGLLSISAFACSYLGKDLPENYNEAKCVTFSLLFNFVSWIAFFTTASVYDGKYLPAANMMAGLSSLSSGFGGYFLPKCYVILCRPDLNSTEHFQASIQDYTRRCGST
T1 sequence (Q7RTX0 21-852): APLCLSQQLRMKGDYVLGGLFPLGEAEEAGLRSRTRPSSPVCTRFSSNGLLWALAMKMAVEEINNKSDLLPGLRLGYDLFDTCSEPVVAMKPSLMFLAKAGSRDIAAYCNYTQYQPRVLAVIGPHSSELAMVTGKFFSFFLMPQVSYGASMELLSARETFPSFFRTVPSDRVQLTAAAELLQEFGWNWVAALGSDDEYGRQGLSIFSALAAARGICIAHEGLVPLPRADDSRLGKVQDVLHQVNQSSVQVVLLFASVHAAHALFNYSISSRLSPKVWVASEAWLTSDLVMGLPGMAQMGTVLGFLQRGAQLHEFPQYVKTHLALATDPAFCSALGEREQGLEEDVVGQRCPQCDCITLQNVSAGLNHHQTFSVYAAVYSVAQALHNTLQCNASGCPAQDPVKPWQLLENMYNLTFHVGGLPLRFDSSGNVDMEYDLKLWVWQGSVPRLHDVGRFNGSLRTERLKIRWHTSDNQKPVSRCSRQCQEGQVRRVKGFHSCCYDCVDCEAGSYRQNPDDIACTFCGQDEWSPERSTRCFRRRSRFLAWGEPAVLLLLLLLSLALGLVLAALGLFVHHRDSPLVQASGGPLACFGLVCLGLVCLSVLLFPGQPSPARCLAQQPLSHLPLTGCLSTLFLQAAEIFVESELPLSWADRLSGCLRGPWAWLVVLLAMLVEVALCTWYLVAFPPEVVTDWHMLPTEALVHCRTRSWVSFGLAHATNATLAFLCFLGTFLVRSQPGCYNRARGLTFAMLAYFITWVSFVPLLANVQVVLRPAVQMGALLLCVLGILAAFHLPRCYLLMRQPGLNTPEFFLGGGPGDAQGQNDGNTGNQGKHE
Description: in vitro cell-based assay having cells that express the T1R umami taste receptor (enhancement of MSG). The conditions noted are these: for EC50: cells expressing T1R umami taste receptor, read-out: EC50 for enhancement of MSG binding. As to the method: Each of Compounds 101-183 was synthesized according to one of the general procedures set forth above in Examples 1. Thereafter, the compounds were tested in an in vitro cell-based assay having cells that express the T1R umami taste receptor. Dose-binding curves were recorded and the EC50 was determined for enhancement of MSG binding. Table 2 sets forth the calculated EC50 values for certain tested compounds as well as the MSG enhancement ratio at a particular concentration.

`CCOC(=O)CC[C@H](NC(=O)c1ccc(C)c(C)c1)C(=O)OCC` [Compound 122, Diethyl (3,4-dimethylbenzoyl)-L-glutamate]: the EC50 was 2 µM. Further, for the setting “compound at 3 μM”, the “MSG Enh. Ratio” value is recorded as 4.9 @.
`CCOC(=O)[C@H](Cc1ccccc1)NC(=O)c1ccc(C)c(C)c1` [Compound 120, Ethyl (3,4-dimethylbenzoyl)-L-phenylalaninate]: the EC50 is 12 µM. Further, for the setting “compound at 10 μM”, the “MSG Enh. Ratio” value is on record as 4.6 @.
For `CCOC(=O)[C@H](Cc1ccccc1)NC(=O)/C=C/c1ccc(OC)c(OC)c1` [Compound 158, Ethyl (E)-(3-(3,4-dimethoxyphenyl)acryloyl)-L-phenylalaninate], where the note is “compound at 10 μM”, the “MSG Enh. Ratio” value is given as 4.8 @.
On to `CCOC(=O)CC[C@H](NC(=O)/C=C/c1ccc(OCC)cc1)C(=O)OCC` [Compound 156, Diethyl (E)-(3-(4-ethoxyphenyl)acryloyl)-L-glutamate], for which the EC50 came to 4 µM.
Consider `CCOC(=O)[C@@H](NC(=O)c1ccc(COC)cc1)C(C)C` [Compound 110, Ethyl (4-(methoxymethyl)benzoyl)-L-valinate], for which the EC50 was greater than 50 µM. Further, the “MSG Enh. Ratio” value (compound at 50 μM) is listed as 2.7 @.
Regarding `CCOC(=O)[C@@H](NC(=O)/C=C/c1ccc(OC)cc1)C(C)C` [Compound 147, Ethyl (E)-(3-(4-methoxyphenyl)acryloyl)-L-valinate], the EC50 was 2.24 µM. Also, the “MSG Enh. Ratio” value (compound at 0.3 μM) is 3.0 @.
Consider `CCOC(=O)C[C@H](NC(=O)/C=C/c1ccccc1)C(=O)OCC` [Compound 138, Diethyl cinnamoyl-L-aspartate], for which the EC50 was greater than 50 µM. In addition, the “MSG Enh. Ratio” value (compound at 50 μM) is reported as 2.0 @.
Regarding `COC(=O)[C@H](Cc1ccccc1)NC(=O)/C=C/c1cc(OC)ccc1OC` [Compound 157, Methyl (E)-(3-(2,5-dimethoxyphenyl)acryloyl)-L-phenylalaninate], the EC50 was greater than 50 µM. In addition, under “compound at 50 μM”, the “MSG Enh. Ratio” value was 3.1 @.
With `COC(=O)[C@@H](NC(=O)c1ccc(OC)c(OC)c1)C(C)C` [Compound 124, Methyl (3,4-dimethoxybenzoyl)-L-valinate], the EC50 was greater than 50 µM. Also, where the note is “compound at 50 μM”, the “MSG Enh. Ratio” value is given as 1.8 @.
As for `CCOC(=O)[C@H](Cc1ccccc1)NC(=O)/C=C/C(C)C` [Compound 172, Ethyl (E)-(4-methylpent-2-enoyl)-L-phenylalaninate], the “MSG Enh. Ratio” value (compound at 10 μM) is 3.6 @.
Turning to `CCOC(=O)[C@H](Cc1ccccc1)NC(=O)/C=C/c1ccccc1` [Compound 141, Ethyl cinnamoyl-L-phenylalaninate], the “MSG Enh. Ratio” value (compound at 10 μM) is 5.5 @.
On to `C/C=C/C(=O)N[C@@H](Cc1ccccc1)C(=O)OC` [Compound 167, Methyl (E)-but-2-enoyl-L-phenylalaninate], for which the EC50 is greater than 50 µM. Moreover, under “compound at 50 μM”, the “MSG Enh. Ratio” value is 2.1 @.
Regarding `COC(=O)[C@H](C)NC(=O)/C=C/c1ccc(OC)cc1` [Compound 142, Methyl (E)-(3-(4-methoxyphenyl)acryloyl)-L-alaninate], the EC50 is greater than 50 µM. Further, where the note is “compound at 50 μM”, the “MSG Enh. Ratio” value was 3.3 @.
For `CCOC(=O)CC[C@H](NC(=O)c1ccc(C(C)C)cc1)C(=O)OCC` [Compound 111, Diethyl (4-isopropylbenzoyl)-L-glutamate] the same measures were 26 µM and 4.4 @.
Take `CCOC(=O)CC[C@H](NC(=O)/C=C/c1ccc(O)cc1)C(=O)OCC` [Compound 164, Diethyl (E)-(3-(4-hydroxyphenyl)acryloyl)-L-glutamate]: the EC50 is greater than 50 µM. Moreover, the “MSG Enh. Ratio” value (compound at 50 μM) was 4.2 @.
On to `CCOC(=O)[C@@H](NC(=O)c1cccc(OC)c1)C(C)C` [Compound 108, Ethyl (3-methoxybenzoyl)-L-valinate], for which the EC50 was greater than 50 µM. Moreover, the “MSG Enh. Ratio” value (compound at 50 μM) was 2.7 @.
Consider `CCOC(=O)CC[C@H](NC(=O)/C=C/c1ccccc1)C(=O)OCC` [Compound 140, Diethyl cinnamoyl-L-glutamate], for which the EC50 was 12 µM. In addition, the “MSG Enh. Ratio” value (compound at 10 μM) is reported as 5.6 @.
`CCOC(=O)[C@@H](NC(=O)/C=C/c1ccc2c(c1)OCO2)[C@@H](C)CC` [Compound 163, Ethyl ((E)-3-(benzo[d][1,3]dioxol-5-yl)acryloyl)-L-isoleucinate]: the EC50 is greater than 50 µM. In addition, the “MSG Enh. Ratio” value (compound at 50 μM) was 2.4 @.
`CCOC(=O)[C@@H](NC(=O)c1ccc2ccccc2n1)C(C)C` [Compound 133, Ethyl (quinoline-2-carbonyl)-L-valinate]: the EC50 is greater than 50 µM. In addition, the “MSG Enh. Ratio” value (compound at 50 μM) is on record as 2.7 @.
For `C/C=C/C=C/C(=O)N[C@@H](CC(C)C)C(=O)OCC` [Compound 181, Ethyl ((2E,4E)-hexa-2,4-dienoyl)-L-leucinate] the same measures were greater than 50 µM and 4.5 @.
For the compound `CCOC(=O)CC[C@H](NC(=O)c1cc(OC)cc(OC)c1)C(=O)OCC` [Compound 126, Diethyl (3,5-dimethoxybenzoyl)-L-glutamate], for the setting “compound at 50 μM”, the “MSG Enh. Ratio” value is given as 5.2 @.
Regarding `COC(=O)CC[C@H](NC(=O)/C=C/C(C)C)C(=O)OC` [Compound 173, Dimethyl (E)-(4-methylpent-2-enoyl)-L-glutamate], the EC50 is greater than 50 µM. The “MSG Enh. Ratio” value (compound at 50 μM) is recorded as 3.1 @.
Taken in the same sequence, the figures for `CCOC(=O)[C@H](CC(C)C)NC(=O)/C=C/c1ccc2c(c1)OCO2` [Compound 162, Ethyl (E)-(3-(benzo[d][1,3]dioxol-5-yl)acryloyl)-L-leucinate] were greater than 50 µM and 3.4 @.
Turning to `COC(=O)[C@@H](CC(C)C)NC(=O)c1ccc(C)cc1` [Compound 101, Methyl (4-methylbenzoyl)-D-leucinate], the EC50 was less than 2 µM.
Turning to `COC(=O)[C@@H](CC(C)C)NC(=O)c1ccc(C)c(C)c1` [Compound 114, Methyl (3,4-dimethylbenzoyl)-D-leucinate], the EC50 was found to be 0.7 µM.
Consider `CCOC(=O)[C@@H](NC(=O)/C=C/c1ccc(OCC)cc1)C(C)C` [Compound 153, Ethyl (E)-(3-(4-ethoxyphenyl)acryloyl)-L-valinate], for which the EC50 stood at 1 µM. Further, under “compound at 0.3 μM”, the “MSG Enh. Ratio” value is recorded as 7.4 @.
On to `CCOC(=O)[C@@H](CC(C)C)NC(=O)c1ccc(C)c(C)c1` [Compound 115, Ethyl (3,4-dimethylbenzoyl)-D-leucinate], for which the EC50 was 0.1 µM.
Regarding `COC(=O)[C@H](Cc1ccccc1)NC(=O)/C=C/c1ccccc1OC` [Compound 152, Methyl (E)-(3-(2-methoxyphenyl)acryloyl)-L-phenylalaninate], the EC50 is 27 µM. Under “compound at 10 μM”, the “MSG Enh. Ratio” value is 2.8 @.
Take `CCOC(=O)[C@@H](CC(C)C)NC(=O)/C=C/c1ccc(OC)cc1` [Compound 150, Ethyl (E)-(3-(4-methoxyphenyl)acryloyl)-D-leucinate]: the EC50 is 1 µM.
As for `CCOC(=O)[C@@H](CC(C)C)NC(=O)c1ccc2c(c1)OCO2` [Compound 130, Ethyl (benzo[d][1,3]dioxole-5-carbonyl)-D-leucinate], the EC50 is 0.5 µM.
In the case of `COC(=O)[C@@H](Cc1ccccc1)NC(=O)c1ccc(C)c(C)c1` [Compound 113, Methyl (3,4-dimethylbenzoyl)-D-phenylalaninate], the EC50 is 0.3 µM.
Take `COC(=O)[C@@H](NC(=O)c1ccc2c(c1)OCO2)C(C)C` [Compound 127, Methyl (benzo[d][1,3]dioxole-5-carbonyl)-L-valinate]: the EC50 was greater than 50 µM. For the same compound, the “MSG Enh. Ratio” value (compound at 50 μM) was 3.4 @.

One may read the EC50 as the concentration that produces a half-maximal response.

The values above are taken from patent US20250024871A1, “AMIDE COMPOUNDS AND THEIR USE AS FLAVOR MODIFIERS” (Firmenich Incorporated, priority 2021, published 2025).
